Columns and labels:
[1] = Inhibition of rice alpha-glucosidase using p-nitrophenyl glycoside as substrate assessed as release of p-nitrophenol measured by spectrometric assay; parameters: species or system Oryza sativa; conditions: read-out: IC50
[2] = Inhibition of rat intestinal maltase using maltose as substrate assessed as release of D-glucose measured by spectrometric assay
[3] = target: T1, Sucrase-isomaltase, intestinal (Rattus norvegicus, UniProt P23739); experiment: Inhibition of rat intestinal sucrase using p-nitrophenyl glycoside as substrate assessed as release of p-nitrophenol measured by spectrometric assay
[4] = target: T1, Sucrase-isomaltase, intestinal; experiment: Inhibition of rat intestinal isomaltase using p-nitrophenyl glycoside as substrate assessed as release of p-nitrophenol measured by spectrometric assay
[5] = Inhibition of almond beta-glucosidase using p-nitrophenyl glycoside as substrate assessed as release of p-nitrophenol measured by spectrometric assay; parameters: species or system Prunus dulcis
[6] = system: Prunus dulcis; experiment: Inhibition of almond beta-glucosidase using p-nitrophenyl glycoside as substrate assessed as release of p-nitrophenol at 1000 uM measured by spectrometric assay relative to control
[7] = Inhibition of bovine liver beta-glucosidase using p-nitrophenyl glycoside as substrate assessed as release of p-nitrophenol measured by spectrometric assay; parameters: species or system Bos taurus
[8] = target: Alpha-galactosidase (Coffea arabica, UniProt Q42656); experiment: Inhibition of coffee beans alpha-galactosidase using p-nitrophenyl glycoside as substrate assessed as release of p-nitrophenol measured by spectrometric assay
[9] = target: Alpha-galactosidase (Coffea arabica) (UniProt Q42656); experiment: Inhibition of coffee beans alpha-galactosidase using p-nitrophenyl glycoside as substrate assessed as release of p-nitrophenol at 1000 uM measured by spectrometric assay relative to control
[10] = Inhibition of bovine liver beta-galactosidase using p-nitrophenyl glycoside as substrate assessed as release of p-nitrophenol measured by spectrometric assay; format: tissue-based, Bos taurus
[11] = Inhibition of jack bean alpha-mannosidase using p-nitrophenyl glycoside as substrate assessed as release of p-nitrophenol measured by spectrometric assay; parameters: species or system Canavalia ensiformis
[12] = target: T2, Alpha-mannosidase (Canavalia ensiformis) (UniProt C0HJB3); experiment: Inhibition of jack bean alpha-mannosidase using p-nitrophenyl glycoside as substrate assessed as release of p-nitrophenol at 1000 uM measured by spectrometric assay relative to control
T2 sequence (whole entry): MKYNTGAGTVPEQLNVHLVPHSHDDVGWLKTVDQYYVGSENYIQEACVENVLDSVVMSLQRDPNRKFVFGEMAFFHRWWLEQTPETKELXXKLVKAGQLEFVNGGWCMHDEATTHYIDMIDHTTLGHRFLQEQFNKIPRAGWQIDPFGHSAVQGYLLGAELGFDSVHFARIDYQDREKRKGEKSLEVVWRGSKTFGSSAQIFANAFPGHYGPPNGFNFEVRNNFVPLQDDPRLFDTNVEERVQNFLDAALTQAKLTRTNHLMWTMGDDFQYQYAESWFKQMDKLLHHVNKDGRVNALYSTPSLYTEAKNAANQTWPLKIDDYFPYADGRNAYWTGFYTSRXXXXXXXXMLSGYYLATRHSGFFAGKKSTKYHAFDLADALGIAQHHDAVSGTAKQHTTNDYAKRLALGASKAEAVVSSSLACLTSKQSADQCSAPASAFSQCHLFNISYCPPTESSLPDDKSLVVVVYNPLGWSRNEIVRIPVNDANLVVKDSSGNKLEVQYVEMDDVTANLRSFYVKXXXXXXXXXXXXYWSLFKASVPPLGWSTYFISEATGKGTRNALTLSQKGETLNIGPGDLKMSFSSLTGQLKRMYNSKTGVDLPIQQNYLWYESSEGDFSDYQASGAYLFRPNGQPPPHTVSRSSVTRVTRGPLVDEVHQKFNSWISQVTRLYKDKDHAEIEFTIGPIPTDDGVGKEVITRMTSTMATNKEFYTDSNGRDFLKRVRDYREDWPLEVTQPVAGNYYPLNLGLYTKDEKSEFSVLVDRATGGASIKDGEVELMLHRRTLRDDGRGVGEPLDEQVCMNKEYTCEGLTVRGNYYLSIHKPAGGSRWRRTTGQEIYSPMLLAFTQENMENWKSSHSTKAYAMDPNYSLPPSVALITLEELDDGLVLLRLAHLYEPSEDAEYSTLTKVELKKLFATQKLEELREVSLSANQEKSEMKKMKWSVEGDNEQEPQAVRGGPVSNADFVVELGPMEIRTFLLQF

[13] = Inhibition of snail beta-mannosidase using p-nitrophenyl glycoside as substrate assessed as release of p-nitrophenol measured by spectrometric assay; parameters: species or system Helix pomatia
[14] = system: Helix pomatia; experiment: Inhibition of snail beta-mannosidase using p-nitrophenyl glycoside as substrate assessed as release of p-nitrophenol at 1000 uM measured by spectrometric assay relative to control
[15] = target: T3, Tissue alpha-L-fucosidase (Bos taurus, UniProt Q2KIM0); experiment: Inhibition of bovine kidney alpha-L-fucosidase using p-nitrophenyl glycoside as substrate assessed as release of p-nitrophenol measured by spectrometric assay
T3 sequence (Q2KIM0 whole entry): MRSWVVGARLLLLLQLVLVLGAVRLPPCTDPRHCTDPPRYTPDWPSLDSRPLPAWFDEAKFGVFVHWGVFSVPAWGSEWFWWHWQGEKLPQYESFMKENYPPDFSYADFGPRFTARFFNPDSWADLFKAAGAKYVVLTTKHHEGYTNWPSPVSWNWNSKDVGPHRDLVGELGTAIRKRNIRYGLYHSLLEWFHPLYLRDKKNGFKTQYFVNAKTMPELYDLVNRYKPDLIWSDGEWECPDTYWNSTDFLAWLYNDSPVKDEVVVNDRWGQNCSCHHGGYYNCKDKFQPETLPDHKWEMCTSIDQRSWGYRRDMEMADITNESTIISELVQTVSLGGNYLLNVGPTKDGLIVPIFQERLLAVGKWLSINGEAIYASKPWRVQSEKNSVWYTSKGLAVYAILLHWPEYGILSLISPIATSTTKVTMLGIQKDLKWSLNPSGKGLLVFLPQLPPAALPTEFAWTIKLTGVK

[16] = target: T4, Tissue alpha-L-fucosidase (Bos taurus) (UniProt Q2KIM0); experiment: Inhibition of bovine kidney alpha-L-fucosidase using p-nitrophenyl glycoside as substrate assessed as release of p-nitrophenol at 1000 uM measured by spectrometric assay relative to control; format: tissue-based
T4 sequence (whole entry): T3 sequence (Q2KIM0 whole entry)

[17] = Inhibition of porcine kidney alpha-trehalase using p-nitrophenyl glycoside as substrate assessed as release of p-nitrophenol measured by spectrometric assay; parameters: species or system Sus scrofa
[18] = species on record: Sus scrofa; experiment: Inhibition of porcine kidney alpha-trehalase using p-nitrophenyl glycoside as substrate assessed as release of p-nitrophenol at 1000 uM measured by spectrometric assay relative to control
[19] = Inhibition of Aspergillus niger amyloglucosidase using p-nitrophenyl glycoside as substrate assessed as release of p-nitrophenol measured by spectrometric assay
[20] = system: Aspergillus niger; experiment: Inhibition of Aspergillus niger amyloglucosidase using p-nitrophenyl glycoside as substrate assessed as release of p-nitrophenol at 1000 uM measured by spectrometric assay relative to control
[21] = Inhibition of Penicillium decumbens alpha-L-rhamnosidase using p-nitrophenyl glycoside as substrate assessed as release of p-nitrophenol measured by spectrometric assay
[22] = system: Penicillium decumbens; experiment: Inhibition of Penicillium decumbens alpha-L-rhamnosidase using p-nitrophenyl glycoside as substrate assessed as release of p-nitrophenol at 1000 uM measured by spectrometric assay relative to control
[23] = target: Beta-glucuronidase (Escherichia coli (strain K12), UniProt P05804); experiment: Inhibition of Escherichia coli beta-glucuronidase using p-nitrophenyl glycoside as substrate assessed as release of p-nitrophenol measured by spectrometric assay
[24] = target: Beta-glucuronidase (Escherichia coli (strain K12)) (UniProt P05804); experiment: Inhibition of Escherichia coli beta-glucuronidase using p-nitrophenyl glycoside as substrate assessed as release of p-nitrophenol at 1000 uM measured by spectrometric assay relative to control
[25] = species on record: Rattus norvegicus; experiment: Inhibition of rat intestinal maltase using maltose as substrate assessed as release of D-glucose at 1000 uM measured by spectrometric assay
[26] = species on record: Bos taurus; experiment: Inhibition of bovine liver beta-glucosidase using p-nitrophenyl glycoside as substrate assessed as release of p-nitrophenol at 1000 uM measured by spectrometric assay relative to control; format: tissue-based
[27] = species on record: Bos taurus; experiment: Inhibition of bovine liver beta-galactosidase using p-nitrophenyl glycoside as substrate assessed as release of p-nitrophenol at 1000 uM measured by spectrometric assay relative to control

Sequence of Beta-glucuronidase (P05804 whole entry): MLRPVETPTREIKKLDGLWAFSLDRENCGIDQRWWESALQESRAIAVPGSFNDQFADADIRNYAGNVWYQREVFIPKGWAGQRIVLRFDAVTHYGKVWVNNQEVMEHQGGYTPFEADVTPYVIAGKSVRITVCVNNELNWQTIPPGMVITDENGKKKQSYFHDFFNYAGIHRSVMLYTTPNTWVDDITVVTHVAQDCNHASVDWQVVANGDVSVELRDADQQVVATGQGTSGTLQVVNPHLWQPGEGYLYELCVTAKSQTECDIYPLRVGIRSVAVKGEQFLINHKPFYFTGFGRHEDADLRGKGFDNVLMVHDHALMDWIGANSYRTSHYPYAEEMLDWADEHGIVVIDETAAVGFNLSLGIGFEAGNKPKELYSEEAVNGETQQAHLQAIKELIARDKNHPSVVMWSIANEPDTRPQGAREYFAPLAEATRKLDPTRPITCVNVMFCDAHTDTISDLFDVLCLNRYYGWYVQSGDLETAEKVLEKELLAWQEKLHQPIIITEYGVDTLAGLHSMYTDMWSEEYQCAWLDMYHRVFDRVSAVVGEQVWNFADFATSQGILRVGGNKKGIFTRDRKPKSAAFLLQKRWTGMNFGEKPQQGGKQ
Sequence of Beta-glucuronidase (Escherichia coli (strain K12)) (P05804 whole entry, looked up): as the sequence (P05804 whole entry) above
T1 sequence (P23739 1-1013 limits assumed): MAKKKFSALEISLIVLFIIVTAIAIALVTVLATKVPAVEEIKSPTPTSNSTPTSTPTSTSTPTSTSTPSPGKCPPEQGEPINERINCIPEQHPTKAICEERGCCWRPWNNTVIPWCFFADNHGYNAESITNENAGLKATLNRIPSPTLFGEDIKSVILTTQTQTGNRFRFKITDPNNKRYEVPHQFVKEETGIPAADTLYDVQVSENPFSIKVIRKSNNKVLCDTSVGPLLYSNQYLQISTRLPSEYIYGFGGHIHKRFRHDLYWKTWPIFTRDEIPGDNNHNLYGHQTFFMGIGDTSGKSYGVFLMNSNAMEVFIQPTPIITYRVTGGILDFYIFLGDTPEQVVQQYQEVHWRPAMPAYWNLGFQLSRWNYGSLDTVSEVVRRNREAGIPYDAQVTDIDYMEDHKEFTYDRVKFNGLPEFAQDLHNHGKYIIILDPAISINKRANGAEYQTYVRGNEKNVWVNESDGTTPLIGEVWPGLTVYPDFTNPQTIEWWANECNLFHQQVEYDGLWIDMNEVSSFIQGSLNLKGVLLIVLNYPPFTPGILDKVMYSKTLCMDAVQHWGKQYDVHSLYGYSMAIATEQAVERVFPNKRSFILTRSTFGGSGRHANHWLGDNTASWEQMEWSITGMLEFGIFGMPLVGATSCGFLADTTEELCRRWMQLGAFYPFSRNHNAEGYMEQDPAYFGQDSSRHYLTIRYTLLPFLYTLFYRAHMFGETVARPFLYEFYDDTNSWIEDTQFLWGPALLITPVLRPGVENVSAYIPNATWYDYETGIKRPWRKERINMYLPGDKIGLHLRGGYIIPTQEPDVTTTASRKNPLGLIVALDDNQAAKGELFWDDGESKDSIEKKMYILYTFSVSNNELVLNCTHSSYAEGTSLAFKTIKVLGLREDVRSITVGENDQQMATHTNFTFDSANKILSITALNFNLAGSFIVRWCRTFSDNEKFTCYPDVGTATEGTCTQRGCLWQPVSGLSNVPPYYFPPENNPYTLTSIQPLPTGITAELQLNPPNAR
T1 sequence (P23739 1014-1841 limits assumed): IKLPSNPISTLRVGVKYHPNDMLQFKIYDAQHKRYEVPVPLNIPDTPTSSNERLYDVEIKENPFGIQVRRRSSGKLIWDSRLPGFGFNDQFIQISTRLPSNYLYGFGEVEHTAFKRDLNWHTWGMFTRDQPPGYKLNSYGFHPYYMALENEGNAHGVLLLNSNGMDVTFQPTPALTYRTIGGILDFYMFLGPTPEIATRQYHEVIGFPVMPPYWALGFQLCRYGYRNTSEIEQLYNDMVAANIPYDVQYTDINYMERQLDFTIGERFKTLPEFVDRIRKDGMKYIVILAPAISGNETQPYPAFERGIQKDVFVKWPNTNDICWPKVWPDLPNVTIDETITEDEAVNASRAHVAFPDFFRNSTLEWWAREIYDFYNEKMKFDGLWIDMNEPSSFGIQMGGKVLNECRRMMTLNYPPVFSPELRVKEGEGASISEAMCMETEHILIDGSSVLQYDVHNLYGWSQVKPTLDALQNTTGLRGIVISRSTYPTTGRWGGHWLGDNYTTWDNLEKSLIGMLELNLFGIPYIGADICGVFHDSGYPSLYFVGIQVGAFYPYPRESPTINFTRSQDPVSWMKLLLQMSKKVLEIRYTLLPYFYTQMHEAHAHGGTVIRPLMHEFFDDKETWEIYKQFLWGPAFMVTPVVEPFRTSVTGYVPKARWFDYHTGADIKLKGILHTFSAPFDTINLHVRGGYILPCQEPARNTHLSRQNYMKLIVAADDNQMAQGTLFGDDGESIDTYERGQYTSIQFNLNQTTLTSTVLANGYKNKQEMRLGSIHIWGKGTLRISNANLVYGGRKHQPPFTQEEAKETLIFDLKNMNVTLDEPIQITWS
Sequence of Alpha-galactosidase (Coffea arabica) (Q42656 16-378 limits assumed): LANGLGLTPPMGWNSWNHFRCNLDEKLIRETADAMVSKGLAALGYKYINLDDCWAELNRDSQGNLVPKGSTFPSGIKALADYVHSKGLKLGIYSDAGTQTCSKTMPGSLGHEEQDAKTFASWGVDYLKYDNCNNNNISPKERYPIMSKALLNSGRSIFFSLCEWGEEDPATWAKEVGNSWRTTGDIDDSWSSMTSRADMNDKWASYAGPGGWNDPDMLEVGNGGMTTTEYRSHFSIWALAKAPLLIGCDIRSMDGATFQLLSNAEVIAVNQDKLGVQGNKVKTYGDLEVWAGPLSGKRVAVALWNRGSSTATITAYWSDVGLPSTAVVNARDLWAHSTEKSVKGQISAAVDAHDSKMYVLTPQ
Sequence of Alpha-galactosidase (Q42656 whole entry): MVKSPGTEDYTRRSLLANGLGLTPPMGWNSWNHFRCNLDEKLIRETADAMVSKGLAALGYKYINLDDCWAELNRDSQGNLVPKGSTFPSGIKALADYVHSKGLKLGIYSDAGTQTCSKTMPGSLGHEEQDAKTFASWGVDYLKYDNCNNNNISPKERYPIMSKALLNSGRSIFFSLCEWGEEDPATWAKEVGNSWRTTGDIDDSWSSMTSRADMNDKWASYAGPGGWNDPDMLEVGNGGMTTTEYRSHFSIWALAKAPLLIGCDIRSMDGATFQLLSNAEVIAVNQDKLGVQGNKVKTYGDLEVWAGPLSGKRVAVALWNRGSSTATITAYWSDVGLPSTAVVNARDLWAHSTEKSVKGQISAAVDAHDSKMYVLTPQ

SMILES	IC50 [1]	IC50 [2]	IC50 [5]	inhibition [6]	IC50 [8]	inhibition [9]	IC50 [11]	inhibition [12]	IC50 [13]	inhibition [14]	IC50 [15]	inhibition [16]	IC50 [17]	inhibition [18]	IC50 [19]	inhibition [20]	IC50 [21]	inhibition [22]	IC50 [23]	inhibition [24]	other results
CCCCCCCCCC[C@@]1(CO)NC[C@H](O)[C@@H](O)[C@@H]1O.Cl	159 µM	263 µM	Not Active	8.8%	Not Active	2.1%	Not Active	4.7%	Not Active	0%	Not Active	0%	Not Active	3%	Not Active	10.5%	Not Active	0%	Not Active	3.2%	IC50 [3]: Not Active; IC50 [4]: Not Active; IC50 ([7]; read-out: IC50): 83 µM; IC50 ([10]; read-out: IC50): 43 µM; inhibition [25]: 0%
C[C@@]1(CO)NC[C@H](O)[C@@H](O)[C@@H]1O.Cl	38 µM	22 µM	Not Active	9.5%	Not Active	9.3%	Not Active	9.6%	Not Active	2%	Not Active	13.8%	Not Active	7.5%	Not Active	2.7%	Not Active	0%	Not Active	17.7%	IC50 ([3]; read-out: IC50): 25 µM; IC50 [4]: Not Active; IC50 [7]: Not Active; inhibition [26]: 3.6%; IC50 [10]: Not Active; inhibition [27]: 14.1%
CCC[C@]1(CO)NC[C@H](O)[C@@H](O)[C@@H]1O.Cl	0.088 µM	0.096 µM	Not Active	5.7%	Not Active	11%	Not Active	7.9%	Not Active	1.5%	Not Active	9.9%	Not Active	4.3%	Not Active	1.9%	Not Active	3.6%	Not Active	8.6%	IC50 ([3]; read-out: IC50): 0.2 µM; IC50 ([4]; read-out: IC50): 1.7 µM; IC50 [7]: Not Active; inhibition [26]: 10.3%; IC50 [10]: Not Active; inhibition [27]: 15.7%
CC[C@@]1(CO)NC[C@H](O)[C@@H](O)[C@@H]1O.Cl	14 µM	6.6 µM	Not Active	6.2%	Not Active	3.5%	Not Active	2.4%	Not Active	1.1%	Not Active	2.1%	Not Active	1.5%	Not Active	0%	Not Active	0%	Not Active	0.4%	IC50 ([3]; read-out: IC50): 8.8 µM; IC50 ([4]; read-out: IC50): 50 µM; IC50 [7]: Not Active; inhibition [26]: 9.2%; IC50 [10]: Not Active; inhibition [27]: 18.4%

— ChEMBL document CHEMBL4828725 (Eur J Med Chem, 2021)
